Read-outs that look alike come from different tables or passages of the source.
Legend:
[1] = tested on: rats hemorrhaged to induce hemorrhagic shock; assay: Fluid resuscitation after hemorrhagic shock, intravenous bolus injection at end of shock period; format: in vivo, rat; settings: for fluid requirements to resuscitate to a MAP of 70 mmHg: mean±SD
Experimental: Further phases of the investigation entailed the use of anesthetized male Sprague-Dawley rats that were hemorrhaged to a mean arterial blood pressure (MAP) of 25 mmHg for thirty minutes to induce hemorrhagic shock, followed by fluid resuscitation with normal saline to a MAP of 70 mmHg until t=75 minutes. Hemodynamics and fluid requirements were continuously monitored.
FIG. 3 contains three plots evidencing the ability of linopirdine to dose-dependently reduce fluid requirements to maintain hemodynamics during resuscitation from induced hemorrhagic shock. At the end of the hemorrhagic shock period (t=30 min), normal saline alone (“vehicle”; n=4), 1 mg/kg (n=5), 3 mg/kg (n=3), or 6 mg/kg (n=3) linopirdine in 0.5 mL normal saline were bolus injected intravenously. Plot “A” represents the mean arterial blood pressure (MAP, mmHg), plot “B” represents the hemorrhage volume in percent of total blood volume, and plot “C” represents the resuscitation fluid requirements to maintain blood pressure at 70 mmHg. Fluid requirements to resuscitate to a MAP of 70 mmHg were: 65±34 mL/kg with normal saline alone and 57±13 mL/kg, 22±8 mL/kg (p<0.05 vs. normal saline alone) and 22±11 mL/kg (p<0.05 vs. normal saline alone) with 1 mg/kg, 3 mg/kg, and 6 mg/kg linopirdine, respectively. The effect of linopirdine to reduce fluid requirements to maintain hemodynamics during resuscitation from hemorrhagic shock appeared to be saturated at a bolus dose of about 3 mg/kg linopirdine. As compared with normal saline-treated animals, a bolus injection of linopirdine (3 mg/kg and 6 mg/kg) reduced fluid resuscitation requirements by 70%. Data are mean±SD. *:p<0.05 vs. normal saline alone. Two-way ANOVA/Bonferroni post-hoc multiple comparison test.
At the end of the hemorrhagic shock period (t=30 min), normal saline alone (“vehicle”; n=3) or 1 mg/kg (n=3) of XE991 in 0.5 mL normal saline were injected intravenously. Plot “A” represents the mean arterial blood pressure (MAP, mmHg), plot “B” represents the hemorrhage volume in percent of total blood volume, and plot “C” represents the resuscitation fluid requirements to maintain blood pressure at 70 mmHg. […] Data are mean±SD. *:p<0.05 vs. normal saline alone. Two-way ANOVA/Bonferroni post-hoc multiple comparison test.

Kv7 channel = settings: XE991 vs linopirdine; cited from earlier work
normal rats = assay: Effect of intravenous bolus doses on blood pressure in normal anesthetized rats (sham, no hemorrhage); format: in vivo, rat; settings: for peak mean arterial blood pressure (MAP): normal rats n=3, baseline MAP 92±2.5 mmHg, mean±SD
Experimental: Initial phases of the investigation entailed the administration of linopirdine to anesthetized male Sprague-Dawley rats to determine its effect on blood pressure. Hemodynamics and fluid requirements were continuously monitored.
FIG. 1 contains a plot representing the effect of linopirdine on blood pressure in normal rats (sham—no hemorrhage, n=3) that received five increasing intravenous (i.v.) bolus doses of linopirdine (0.1-6 mg per kg of body weight) in 0.5 mL normal saline (NS) at fifteen minute intervals. […] Data are mean±SD.
FIG. 2 contains a plot representing the effect of the Kv7 channel activator retigabine on blood pressure when administered to normal rats (sham—no hemorrhage, n=3) by intravenous injection in increasing dosages of 0.1 mg/kg, 0.5 mg/kg, 1 mg/kg, 3 mg/kg, 6 mg/kg, and 12 mg/kg in 0.5 mL normal saline. […] Data are mean±SD.

[2] = tested on: rats hemorrhaged to induce hemorrhagic shock; assay: Fluid resuscitation after hemorrhagic shock, resuscitation fluid (normal saline) supplemented with drug; format: in vivo, rat; settings: for fluid requirements to resuscitate to a MAP of 70 mmHg: mean±SD
Experimental: Further phases of the investigation entailed the use of anesthetized male Sprague-Dawley rats that were hemorrhaged to a mean arterial blood pressure (MAP) of 25 mmHg for thirty minutes to induce hemorrhagic shock, followed by fluid resuscitation with normal saline to a MAP of 70 mmHg until t=75 minutes. Hemodynamics and fluid requirements were continuously monitored. […] At the end of the hemorrhagic shock period (t=30 min), animals were resuscitated with normal saline alone (“vehicle”; n=4) or normal saline supplemented with 1.25 (n=4), 6.25 (n=3), 12.5 (n=4), or 200 (n=6) […] of linopirdine. Plot “A” represents the mean arterial blood pressure (MAP, mmHg), plot “B” represents the hemorrhage volume in percent of total blood volume, and plot “C” represents the resuscitation fluid requirements to maintain blood pressure at 70 mmHg. Fluid requirements to resuscitate to a MAP of 70 mmHg were: 73±12 mL/kg with NS, 72±24 mL/kg with NS supplemented with 1.25 μg/mL linopirdine and 61±20 mL/kg, 36±9 mL/kg (p<0.05 vs. NS alone) and 31±9 mL/kg (p<0.05 vs. NS alone) with NS supplemented with 6.25 μg/mL, 12.5 μg/mL and 200 μg/mL linopirdine, respectively. […] Data are mean±SD. *:p<0.05 vs. normal saline alone. Two-way ANOVA/Bonferroni post-hoc multiple comparison test.

[3] = rat, in vivo
Experimental: After intravenous injection of 2.5 mg/kg linopirdine, a half-life of 0.6 hours has been determined in rats. Thus, the short half-life would indicate that linopirdine is a drug that is easily controllable if adverse effects were to occur.

[4] = oral administration in humans; cited from earlier work
[5] = intravenous injection of 2.5 mg/kg in rats; cited from earlier work
[6] = phase 1 and phase 2 clinical trials as cognition-enhancing drug in Alzheimer's disease; cited from earlier work

O=C1c2ccccc2C(Cc2ccncc2)(Cc2ccncc2)c2ccccc21 [XE991]
effect on resuscitation fluid requirements relative to linopirdine ([1]; XE991 1 mg/kg i.v. bolus, n=3, compared with linopirdine 3 mg/kg and 6 mg/kg): comparable effect | potency for channel blockade relative to linopirdine (Kv7 channel): five to ten-fold higher potency

O=C1N(c2ccccc2)c2ccccc2C1(Cc1ccncc1)Cc1ccncc1 [linopirdine]
transient increase of mean arterial blood pressure (normal rats; 6 mg/kg i.v. injection, normal rats): approximately 10% | reversal of retigabine-induced hypotension (normal rats; 6 mg/kg linopirdine injected after last (12 mg/kg) dosage of retigabine, normal rats): able to be reversed | time for MAP to return to baseline after bolus (normal rats; 0.1-6 mg/kg i.v. bolus doses, normal rats): ten to fifteen | effect on systemic blood pressures (normal rats; high i.v. bolus dose 6 mg/kg and total i.v. dose 10.6 mg/kg within one hour, normotensive rats): only minimal and short-lived increases | peak mean arterial blood pressure (MAP) (normal rats; linopirdine 0.1 mg/kg i.v. bolus): 92±2 mmHg | peak mean arterial blood pressure (MAP) (normal rats; linopirdine 0.5 mg/kg i.v. bolus): 93±2 mmHg | peak mean arterial blood pressure (MAP) (normal rats; linopirdine 1 mg/kg i.v. bolus): 95±4 mmHg | peak mean arterial blood pressure (MAP) (normal rats; linopirdine 3 mg/kg i.v. bolus): 100±2 mmHg | peak mean arterial blood pressure (MAP) (normal rats; linopirdine 6 mg/kg i.v. bolus): 105±0.6 mmHg | fluid requirements to resuscitate to a MAP of 70 mmHg ([1]; 1 mg/kg i.v. bolus at t=30 min, n=5, normal saline alone 65±34 mL/kg): 57 ± 13 mL/kg | fluid requirements to resuscitate to a MAP of 70 mmHg ([1]; 3 mg/kg i.v. bolus at t=30 min, n=3, p<0.05 vs. normal saline alone (65±34 mL/kg)): 22 ± 8 mL/kg | fluid requirements to resuscitate to a MAP of 70 mmHg ([1]; 6 mg/kg i.v. bolus at t=30 min, n=3, p<0.05 vs. normal saline alone (65±34 mL/kg)): 22 ± 11 mL/kg | reduction of fluid resuscitation requirements compared with normal saline-treated animals ([1]; bolus injection 3 mg/kg and 6 mg/kg): 70% | bolus dose at which the fluid-sparing effect appeared saturated ([1]; i.v. bolus, hemorrhagic shock rats): about 3 mg/kg | reduction of resuscitation fluid requirements at saturating dose ([1]; single dose of three milligrams per kilogram at beginning of fluid resuscitation): 65% | fluid requirements to resuscitate to a MAP of 70 mmHg ([2]; NS supplemented with 1.25 μg/mL linopirdine, n=4, NS alone 73±12 mL/kg): 72 ± 24 mL/kg | fluid requirements to resuscitate to a MAP of 70 mmHg ([2]; NS supplemented with 6.25 μg/mL linopirdine, n=3, NS alone 73±12 mL/kg): 61 ± 20 mL/kg | fluid requirements to resuscitate to a MAP of 70 mmHg ([2]; NS supplemented with 12.5 μg/mL linopirdine, n=4, p<0.05 vs. NS alone (73±12 mL/kg), cumulative dose 0.446 mg/kg): 36 ± 9 mL/kg | fluid requirements to resuscitate to a MAP of 70 mmHg ([2]; NS supplemented with 200 μg/mL linopirdine, n=6, p<0.05 vs. NS alone (73±12 mL/kg)): 31 ± 9 mL/kg | concentration in normal saline at which the effect was saturated ([2]; supplemented resuscitation fluid, hemorrhagic shock rats): 12.5 µg/mL | toxicity associated with treatment [3]: No toxicity | half-life [4]: 24 to 192 min | half-life [5]: 36 min | adverse effects in clinical trials [6]: no relevant adverse effects

Source: patent US20170304281A1, “METHODS OF USING POTASSIUM CHANNEL INHIBITORS (BLOCKERS) FOR FLUID RESUSCITATION” (Loyola University of Chicago, priority 2016, published 2017)
